Read-outs that look alike come from different tables or passages of the source.
Experiments:
[1] = target: T1, Recombinant human PI3Kγ (full length human PI3K p110γ) (Homo sapiens, UniProt P48736); assay: Kinase assay of PI3Kγ (solid-phase lipid kinase assay); format: biochemical
T1 construct: full length human PI3K p110γ fused with a His6-tag at the C-terminus; His6 (C); purchased ALEXIS BIOCHEMICALS #201-055-C010; host or cells: S. frugiperda 9 insect cells

[2] = in vitro PI3K-γ inhibitory activity, class symbols, read-out: in vitro PI3K-gamma
[3] = in vitro PI3K-γ inhibitory activity, class symbols A-D, read-out: in vitro PI3K-gamma
[4] = Table 1, isozyme not given, read-out: in vitro

T1 sequence (P48736 whole entry, the tested form may be a part): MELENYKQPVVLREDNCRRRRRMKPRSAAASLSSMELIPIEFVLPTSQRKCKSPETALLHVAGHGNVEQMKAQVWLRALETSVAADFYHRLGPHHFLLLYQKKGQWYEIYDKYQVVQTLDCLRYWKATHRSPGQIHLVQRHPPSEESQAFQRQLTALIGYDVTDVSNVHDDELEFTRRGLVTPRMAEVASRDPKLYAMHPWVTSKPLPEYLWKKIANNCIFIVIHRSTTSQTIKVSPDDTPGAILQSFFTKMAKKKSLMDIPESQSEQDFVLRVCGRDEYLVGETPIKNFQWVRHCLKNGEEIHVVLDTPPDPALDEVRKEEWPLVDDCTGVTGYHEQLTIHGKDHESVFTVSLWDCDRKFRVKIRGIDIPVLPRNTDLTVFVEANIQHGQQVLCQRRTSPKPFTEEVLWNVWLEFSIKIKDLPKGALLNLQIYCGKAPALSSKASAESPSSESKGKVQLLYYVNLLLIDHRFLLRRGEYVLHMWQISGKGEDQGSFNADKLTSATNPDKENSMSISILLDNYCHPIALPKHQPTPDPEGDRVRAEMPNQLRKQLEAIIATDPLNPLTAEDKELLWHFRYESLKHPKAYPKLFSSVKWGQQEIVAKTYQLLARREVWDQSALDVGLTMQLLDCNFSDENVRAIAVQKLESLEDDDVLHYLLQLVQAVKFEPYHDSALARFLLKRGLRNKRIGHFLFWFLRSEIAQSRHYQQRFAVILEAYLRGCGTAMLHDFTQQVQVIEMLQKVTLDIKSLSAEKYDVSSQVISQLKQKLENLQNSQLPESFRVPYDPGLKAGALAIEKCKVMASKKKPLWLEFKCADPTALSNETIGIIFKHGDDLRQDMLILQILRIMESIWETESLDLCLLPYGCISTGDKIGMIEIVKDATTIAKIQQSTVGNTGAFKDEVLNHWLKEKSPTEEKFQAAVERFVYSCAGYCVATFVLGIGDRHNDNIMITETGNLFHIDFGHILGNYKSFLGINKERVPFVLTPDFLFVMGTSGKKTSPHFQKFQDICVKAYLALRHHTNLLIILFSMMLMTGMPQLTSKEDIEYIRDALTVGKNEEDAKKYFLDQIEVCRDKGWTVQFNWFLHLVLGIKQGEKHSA

| SMILES | melting point | IC50 [1, 2] [nM] | IC50 [1, 3] [nM] | IC50 [1, 4] [nM] |
| --- | --- | --- | --- | --- |
| COc1cccc2c1N=C(NC(=O)c1cc3cccnc3nc1C(F)(F)F)N1CCN=C21 [Example 2-128] | 214 °C (dec.) | < 100 |  |  |
| COc1cc2c(cc1OC)C1=NCCN1C(NC(=O)c1cc(C)nn1C)=N2 [Example 2-64] | 236 to 237 °C | 100 to 500 |  |  |
| CN(C)c1ccc(C(=O)NC2=Nc3ccccc3C3=NCCN23)cc1.O=C(O)C(F)(F)F [Example 2-260] | 240 °C (dec.) |  | > 2000 |  |
| O=C(NC1=Nc2cc(OCCO)ccc2C2=NCCN12)c1cccnc1 [Example 2-197] | 210 to 215 °C (dec.) | 100 to 500 |  |  |
| Cc1nc2ncccc2cc1C(=O)NC1=Nc2ccccc2C2=NCCN12 [Example 2-174] | 296 °C (dec.) | 100 to 500 |  |  |
| O/C(=C\C1=Nc2ccccc2C2=NCCN12)c1cnccn1 [Example 1-141] | 233 to 235 °C |  |  | 100 to 500 |
| O=C(NC1=Nc2ccccc2C2=NCCN12)c1ccc2[nH]nnc2c1.O=C(O)C(F)(F)F [Example 2-310] | 252 °C (dec.) |  | 100 to 500 |  |
| O/C(=C\C1=Nc2cc(Cl)ccc2C2=NCCN12)c1cccnc1 [Example 1-116] | 226 °C |  |  | 100 to 500 |
| O/C(=C\C1=Nc2c(CN3CCOCC3)cccc2C2=NCCN12)c1cccnc1 [Example 1-82] | 198 to 202 °C (dec.) |  |  | 100 to 500 |
| O=C(COc1ccccc1)NC1=Nc2ccccc2C2=NCCN12 [Example 2-325] | 149 to 150 °C |  | > 2000 |  |
| Cl.O/C(=C\C1=Nc2ncccc2C2=NCCN12)c1ccc2[nH]cnc2c1 [Example 1-160] | 247 °C (dec.) |  |  | 100 to 500 |
| Cc1nocc1C(=O)NC1=Nc2ccccc2C2=NCCN12.Cl [Example 2-186] | 285 °C (dec.) | 100 to 500 |  |  |
| O=C(NC1=Nc2ccccc2C2=NCCN12)c1ccc(-n2ccnc2)cc1 [Example 2-268] | 267 °C (dec.) |  | > 2000 |  |
| Cl.O=C(NC1=Nc2cc(O)ccc2C2=NCCN12)c1cccnc1 [Example 2-195] | 270 to 274 °C (dec.) | 100 to 500 |  |  |
| C=Cc1ccc2c(c1)C1=NCCN1C(NC(=O)c1cccnc1)=N2 [Example 2-95] | 196 to 198 °C | 100 to 500 |  |  |
| COc1cc2c(c(OC)c1C)N=C(/C=C(\O)c1ccc(NC(C)=O)nc1)N1CCN=C21 [Example 1-64] | > 285 °C |  |  | < 100 |
| Cl.O=C(NC1=Nc2cc(N3CCOCC3)ccc2C2=NCCN12)c1ccc2[nH]cnc2c1 [Example 2-11] | 294 °C (dec.) | < 100 |  |  |
| O=C(NC1=Nc2cc(OCCOCCO)ccc2C2=NCCN12)c1cccnc1 [Example 2-201] | 181 °C | 100 to 500 |  |  |

Further lines, results first:

| melting point | IC50 [1, 2] [nM] | IC50 [1, 3] [nM] | IC50 [1, 4] [nM] | SMILES |
| --- | --- | --- | --- | --- |
| 249 °C (dec.) |  | > 2000 |  | CN(C)c1ccc(C(=O)NC2=Nc3ccccc3C3=NCCN23)cn1 [Example 2-282] |
| 213 to 214 °C |  | 100 to 500 |  | Cc1ccc(C(=O)NC2=Nc3ccccc3C3=NCCN23)c(Cl)n1 [Example 2-290] |
| 194 to 195 °C | 100 to 500 |  |  | Cc1ccncc1C(=O)NC1=Nc2ccccc2C2=NCCN12 [Example 2-136] |
| 319 °C (dec.) |  | 100 to 500 |  | Cl.O=C(NC1=Nc2ccccc2C2=NCCN12)c1cnc2ccccc2c1 [Example 2-317] |
| 298 to 299 °C |  | 500 to 2000 |  | CSc1ncccc1C(=O)NC1=Nc2ccccc2C2=NCCN12.Cl [Example 2-289] |
| > 300 °C | < 100 |  |  | O=C(NC1=Nc2ccccc2C2=NCCN12)c1cnc2[nH]cnc2c1 [Example 2-172] |
| 263 to 264 °C |  | > 2000 |  | O=C(NC1=Nc2ccccc2C2=NCCN12)c1cnc2ccccc2c1 [Example 2-316] |
| 196 to 197 °C | 100 to 500 |  |  | CNc1ccc(C(=O)NC2=Nc3ccccc3C3=NCCN23)cn1 [Example 2-153] |

Reference: US7511041B2, “Fused azole-pyrimidine derivatives” (Bayer Pharmaceuticals Corporation, priority 2002, dated 2009)
